Numbers after ± are expanded uncertainties.
Key:
[1] = relative permittivity at various frequencies (dimensionless); conditions: 101.3 kPa, Liquid, Frequency=1 MHz, HP4284A LCR Meter with HP16452A measuring cell
[2] = 101.33 kPa, Liquid

Row | relative permittivity ([1]; 288.15 K) | relative permittivity ([1]; 293.15 K) | relative permittivity ([1]; 298.15 K) | relative permittivity ([1]; 303.15 K) | relative permittivity ([1]; 308.15 K) | relative permittivity ([1]; 318.15 K) | relative permittivity ([1]; 328.15 K) | mass density ([2]; 288.15 K) [kg/m3] | mass density ([2]; 293.15 K) [kg/m3] | mass density ([2]; 298.15 K) [kg/m3] | mass density ([2]; 303.15 K) [kg/m3] | mass density ([2]; 308.15 K) [kg/m3] | mass density ([2]; 318.15 K) [kg/m3] | mass density ([2]; 328.15 K) [kg/m3] | SMILES
1 | 2.04 ± 0.04 | 2.03 ± 0.04 | 2.02 ± 0.04 | 2.02 ± 0.04 | 2.01 ± 0.04 | 2 ± 0.04 | 1.99 ± 0.04 | 752.44 ± 0.64 | 748.8 ± 0.65 | 745.19 ± 0.65 | 741.57 ± 0.66 | 737.93 ± 0.66 | 730.7 ± 0.67 | 723.32 ± 0.68 | CCCCCCCCCCCC [dodecane]
2 | 7.88 ± 0.16 | 7.73 ± 0.15 | 7.58 ± 0.15 | 7.46 ± 0.15 | 7.33 ± 0.15 | 7.09 ± 0.14 | 6.88 ± 0.14 | 989.16 ± 0.76 | 984.16 ± 0.78 | 979.61 ± 0.8 | 974.85 ± 0.82 | 970.85 ± 0.84 | 960.67 ± 0.89 | 951.06 ± 0.94 | COCCOCCOCCOC [2,5,8,11-tetraoxadodecane]
3 | 1.99 ± 0.04 | 1.99 ± 0.04 | 1.98 ± 0.04 | 1.97 ± 0.04 | 1.96 ± 0.04 | 1.95 ± 0.04 | 1.94 ± 0.04 | 721.77 ± 0.6 | 717.76 ± 0.6 | 713.77 ± 0.61 | 709.89 ± 0.61 | 706.2 ± 0.62 | 698.14 ± 0.63 | 690.14 ± 0.64 | CCCCCCCCC [nonane]

— the NIST ThermoML archive (doi:10.1016/j.jct.2004.08.003)
